Biological target: T1, pHPA decarboxylase (Clostridioides difficile, UniProt Q84F16)
T1 construct: Isolated cell free extract of C. difficile; endogenous in cells; host or cells: C. difficile cell-free extract
Assay: estimated ^13CO2 production from labeled substrate by pHPA decarboxylase in a C. difficile infection
Assay type: in vivo
Conditions: infection in which 10 mg of bacterial protein is present; worked out from 12 mU per mg of protein pHPA decarboxylase in isolated cell free extract of C. difficile
Procedure: The compositions of the invention can also be administered intravenously. Isolated cell free extract of C. difficile contains 12 mU per mg of protein of the activating enzyme pHPA decarboxylase. This correlates to the production of 2.7 mL of ^13CO2 per minute in an infection in which 10 mg of bacterial protein is present when a patient is treated with a compound of the invention, for example, ^13C-hydroxyphenylacetate. Oftentimes, a patient is infected with much more than 10 mg of bacterial protein with a C. difficile infection.
Assuming 15 liters of air is respired per minute, and with 4% exhaled CO2, a patient will exhale about 600 ml of CO2 per minute, of which approximately 6.6 mLs will be ^13CO2. […] Thus, efficient delivery of isotopically-labeled compound is important. Preferably, an intravenous dosage form is administered to the patient, leading to rapid increases in intestinal levels, and allowing breath testing from 10 to 120 minutes after dosage. Such dosage forms are sterile and particle-free. Preparation methods for such dosage forms are known in the art.

T1 sequence (Q84F15 whole entry): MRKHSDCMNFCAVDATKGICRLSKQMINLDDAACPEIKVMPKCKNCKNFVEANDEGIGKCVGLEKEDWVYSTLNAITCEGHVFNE
T1 sequence (Q84F16 whole entry): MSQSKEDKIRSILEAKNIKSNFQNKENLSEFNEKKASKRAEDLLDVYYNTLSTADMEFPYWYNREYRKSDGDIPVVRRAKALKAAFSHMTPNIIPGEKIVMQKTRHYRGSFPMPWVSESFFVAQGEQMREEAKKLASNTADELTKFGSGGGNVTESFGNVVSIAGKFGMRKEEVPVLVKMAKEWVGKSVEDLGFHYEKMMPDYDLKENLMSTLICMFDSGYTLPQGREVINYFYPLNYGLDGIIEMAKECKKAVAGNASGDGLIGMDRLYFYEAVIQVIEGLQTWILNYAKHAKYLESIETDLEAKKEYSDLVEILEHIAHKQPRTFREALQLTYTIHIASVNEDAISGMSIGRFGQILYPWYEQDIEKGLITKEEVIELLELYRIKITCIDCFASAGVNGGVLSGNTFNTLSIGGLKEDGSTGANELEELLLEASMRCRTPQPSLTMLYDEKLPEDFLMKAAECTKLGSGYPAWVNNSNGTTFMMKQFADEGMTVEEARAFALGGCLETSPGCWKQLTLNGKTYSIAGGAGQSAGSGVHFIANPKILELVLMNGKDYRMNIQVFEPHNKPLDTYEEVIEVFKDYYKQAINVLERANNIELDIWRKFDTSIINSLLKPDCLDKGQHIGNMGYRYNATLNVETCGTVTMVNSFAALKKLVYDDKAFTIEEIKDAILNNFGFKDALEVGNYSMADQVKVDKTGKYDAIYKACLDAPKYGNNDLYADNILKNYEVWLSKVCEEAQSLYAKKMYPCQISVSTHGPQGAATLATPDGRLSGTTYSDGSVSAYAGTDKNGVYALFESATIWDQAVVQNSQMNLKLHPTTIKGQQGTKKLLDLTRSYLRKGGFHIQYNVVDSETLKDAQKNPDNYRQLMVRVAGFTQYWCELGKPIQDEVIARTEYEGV

Substance: ^13C-hydroxyphenylacetate
- production of ^13CO2: 2.7 mL per minute
